# Data taken from patent US12570655B2, “Cysteine covalent modifiers of AKT1 and uses thereof” (Terremoto Biosciences, Inc., priority 2023, dated 2026).
# Like-named read-outs stand apart in the source and are kept apart here.
# Experiments:
# Type in all cases: cell-based
# AKT1 E17K = biological target: T1, AKT1 E17K (Homo sapiens, UniProt P31749, E17K); assay: Live cell AKT1 E17K target engagement by NanoBRET competitive probe displacement; conditions: HEK293 cells transfected with kinase-NanoLuciferase fusion, 2 h at 37° C.
# T1 construct: expressed in transfected cells; host or cells: HEK293
# Experimental: (§1) Determining Live Cell AKT1 E17K, AKT1 WT, and AKT2 Target Engagement by NanoBRET Competitive Probe Displacement.
# (§2) Live cell target engagement assays were performed as described (Vasta, J. D. et al. Cell Chem Biol 2018, 25(11), 206-214). Briefly, HEK293 cells were transfected with plasmids encoding kinase-NanoLuciferase fusion proteins overnight. Cells were then treated with serial dilutions of compound and an ˜EC50 concentration of fluorescently-tagged ATP-competitive tracer (Promega). After incubation for 2 h at 37° C., luciferase substrate and extracellular luciferase inhibitor were added to all wells, and luminescent intensity at 460 nm and 600 nm were measured on a multimode plate-reader. The ratio of E600/E460 was calculated to give the tracer engagement signal (BRET). IC50 values were calculated by fitting BRET values to a log(inhibitor) vs. response Hill equation.
# AKT1 WT = biological target: T2, AKT1 WT (Homo sapiens, UniProt P31749); assay: Live cell AKT1 WT target engagement by NanoBRET competitive probe displacement; conditions: HEK293 cells transfected with kinase-NanoLuciferase fusion, 2 h at 37° C.
# T2 construct: expressed in transfected cells; host or cells: HEK293
# Experimental: as §1, §2
# [1] = system: LAPC4 prostate cancer cells; assay: Antiproliferative effects in LAPC4 cells (CellTiter Glo); conditions: LAPC4 cells (AKT1 E17K allele), read-out: LAPC4 proliferation IC50
# Experimental: Antiproliferative Effects in LAPC4 Cells.
# LAPC4 prostate cancer cells (Klein, K. A. et al. Nat Med 1997, 3, 402-408), which express the AKT1 E17K allele, were grown in IMDM media (Hyclone) supplemented with 12% FBS+1% P/S. To assess compound effects on growth, 1,000 cells/well were seeded in 384 well assay plates, incubated with compound dilutions dissolved in DMSO. After 72 h, intracellular ATP content was assessed with CellTiter Glo reagent (Promega) according to the manufacturer's instructions. IC50 values were calculated by fitting luminescence values to a log(inhibitor) vs. response Hill equation.
# T1 sequence (P31749 whole entry E17K, the tested form may be a part): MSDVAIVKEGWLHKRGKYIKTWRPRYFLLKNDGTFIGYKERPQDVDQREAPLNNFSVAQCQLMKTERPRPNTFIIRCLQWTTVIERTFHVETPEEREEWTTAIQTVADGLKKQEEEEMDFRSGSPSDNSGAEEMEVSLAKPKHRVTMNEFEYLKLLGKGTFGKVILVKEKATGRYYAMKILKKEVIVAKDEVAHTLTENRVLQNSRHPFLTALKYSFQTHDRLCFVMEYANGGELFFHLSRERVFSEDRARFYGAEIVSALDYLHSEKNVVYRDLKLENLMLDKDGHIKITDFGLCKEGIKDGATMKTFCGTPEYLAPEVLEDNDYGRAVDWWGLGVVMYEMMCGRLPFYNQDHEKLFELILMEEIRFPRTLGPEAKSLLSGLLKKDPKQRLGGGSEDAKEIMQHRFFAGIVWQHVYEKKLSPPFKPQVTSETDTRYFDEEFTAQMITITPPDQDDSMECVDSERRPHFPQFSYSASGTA
# T2 sequence (P31749 whole entry, the tested form may be a part): as the sequence (P31749 whole entry E17K, the tested form may be a part) above, with K17E counted along it
Structure (SMILES),IC50 (AKT1 E17K),IC50 (AKT1 WT),IC50 ([1]; 72 h),"IC50 ([1]; Homo sapiens, LAPC4, 72 h)"
"C=CC(=O)N1CCN(N(C)C2CCc3cc(-n4c(-c5cccnc5N)nc5ccc(-n6cccn6)nc54)ccc32)CC1 (single isomer, unassigned) [Example 179, 1-(4-{[(1*)-5-[2-(2-aminopyridin-3-yl)-5-(pyrazol-1-yl)imidazo[4,5-b]pyridin-3-yl]-2,3-dihydro-1H-inden-1-yl](methyl)amino}piperazin-1-yl)prop-2-en-1-one]",203 nM,2890 nM,3520 nM,–
"C=CC(=O)NC1CCN(C2CCc3cc(-n4c(-c5cccnc5N)nc5ccc(-n6cccn6)nc54)ccc32)CC1 (single isomer, unassigned) [Example 193, N-{1-[(1*)-5-[2-(2-aminopyridin-3-yl)-5-(pyrazol-1-yl)imidazo[4,5-b]pyridin-3-yl]-2,3-dihydro-1H-inden-1-yl]piperidin-4-yl}prop-2-enamide]",10.2 nM,71.5 nM,–,58.4 nM
"C=CC(=O)N1CCC(N[C@H]2CCc3cc(-n4c(-c5cccnc5N)nc5cc(-c6ccncc6)cnc54)ccc32)CC1 [Example 191, (S)-1-(4-((5-(2-(2-aminopyridin-3-yl)-6-(pyridin-4-yl)-3H-imidazo[4,5-b]pyridin-3-yl)-2,3-dihydro-1H-inden-1-yl)amino)piperidin-1-yl)prop-2-en-1-one]",221 nM,1250 nM,–,3370 nM
"C=CC(=O)N1CCN(CC2CCc3cc(-n4c(-c5cccnc5N)nc5ccc(-n6cccn6)nc54)ccc32)CC1 (stereo not shown) [Example 174, 1-(4-((5-(2-(2-aminopyridin-3-yl)-5-(1H-pyrazol-1-yl)-3H-imidazo[4,5-b]pyridin-3-yl)-2,3-dihydro-1H-inden-1-yl)methyl)piperazin-1-yl)prop-2-en-1-one]",8.46 nM,65.5 nM,–,89 nM
"C=CC(=O)N1C[C@H]2CCC[C@@H](C1)C2N[C@H]1CCc2cc(-n3c(-c4cccnc4N)nc4ccc(-n5cccn5)nc43)ccc21 (single isomer, unassigned) [Example 188, 1-((1R,5S,9*)-9-(((S)-5-(2-(2-aminopyridin-3-yl)-5-(1H-pyrazol-1-yl)-3H-imidazo[4,5-b]pyridin-3-yl)-2,3-dihydro-1H-inden-1-yl)amino)-3-azabicyclo[3.3.1]nonan-3-yl)prop-2-en-1-one]",5.65 nM,35 nM,56.3 nM,–
"C=CC(=O)N1CCC(NC2c3ccc(-n4c(-c5cccnc5N)nc5ccc(-n6ccc(C7CC7)n6)nc54)cc3CC2F)CC1C(F)F (single isomer, unassigned) [Example 333, 1-((2*,4*)-4-(((1*,2*)-5-(2-(2-aminopyridin-3-yl)-5-(3-cyclopropyl-H-pyrazol-1-yl)-3H-imidazo[4,5-b]pyridin-3-yl)-2-fluoro-2,3-dihydro-1H-inden-1-yl)amino)-2-(difluoromethyl)piperidin-1-yl)prop-2-en-1-one]",4.33 nM,28.5 nM,–,–
"C=CC(=O)N1CCC(N[C@H]2CCc3cc(-n4c(-c5cccnc5N)nc5cc(-c6ccccn6)cnc54)ccc32)CC1 [Example 269, 1-(4-{[(1S)-5-[2-(2-aminopyridin-3-yl)-6-(pyridin-2-yl)imidazo[4,5-b]pyridin-3-yl]-2,3-dihydro-1H-inden-1-yl]amino}piperidin-1-yl)prop-2-en-1-one]",247 nM,2120 nM,–,5390 nM
"C=CC(=O)N1CCc2cccc(C(=O)N[C@H]3CCc4cc(-n5c(-c6cccnc6N)nc6ccc(-n7cccn7)nc65)ccc43)c2C1 [Example 235, (S)-2-acryloyl-N-(5-(2-(2-aminopyridin-3-yl)-5-(1H-pyrazol-1-yl)-3H-imidazo[4,5-b]pyridin-3-yl)-2,3-dihydro-1H-inden-1-yl)-1,2,3,4-tetrahydroisoquinoline-8-carboxamide]",12.6 nM,51.5 nM,–,65.8 nM
"C=CC(=O)N1C[C@@H]2[C@H](C1)[C@H]2NC1CCc2cc(-n3c(-c4cccnc4N)nc4ccc(-n5cccn5)nc43)ccc21 (single isomer, unassigned) [Example 347, 1-((1R,5S,6s)-6-(((*)-5-(2-(2-aminopyridin-3-yl)-5-(1H-pyrazol-1-yl)-3H-imidazo[4,5-b]pyridin-3-yl)-2,3-dihydro-1H-inden-1-yl)amino)-3-azabicyclo[3.1.0]hexan-3-yl)prop-2-en-1-one]",234 nM,2210 nM,–,–
"C=CC(=O)N1CCC(N[C@H]2CCc3cc(-n4c(-c5cccnc5N)nc5ccc(-n6cccn6)nc54)ccc32)C[C@@H]1C(F)F (single isomer, unassigned) [Example 212, 1-((2R,4*)-4-(((S)-5-(2-(2-aminopyridin-3-yl)-5-(1H-pyrazol-1-yl)-3H-imidazo[4,5-b]pyridin-3-yl)-2,3-dihydro-1H-inden-1-yl)amino)-2-(difluoromethyl)piperidin-1-yl)prop-2-en-1-one]",6.9 nM,36.1 nM,36.6 nM,–
"C=CC(=O)N1C[C@@H]2[C@H](C1)[C@H]2NC1CCc2cc(-n3c(-c4cccnc4N)nc4ccc(-n5cccn5)nc43)ccc21 (single isomer, unassigned) [Example 346, 1-((1R,5S,6s)-6-(((*)-5-(2-(2-aminopyridin-3-yl)-5-(1H-pyrazol-1-yl)-3H-imidazo[4,5-b]pyridin-3-yl)-2,3-dihydro-1H-inden-1-yl)amino)-3-azabicyclo[3.1.0]hexan-3-yl)prop-2-en-1-one]",444 nM,2770 nM,–,–
"C=CC(=O)N1CCC(N[C@H]2CCc3cc(-n4c(-c5cccnc5N)nc5ccc(N6CCCC6)nc54)ccc32)CC1 [Example 170, 1-(4-{[(1S)-5-[2-(2-aminopyridin-3-yl)-5-(pyrrolidin-1-yl)imidazo[4,5-b]pyridin-3-yl]-2,3-dihydro-1H-inden-1-yl]amino}piperidin-1-yl)prop-2-en-1-one]",12.5 nM,114 nM,–,160 nM
"C=CC(=O)N1CCC(N[C@H]2CCc3cc(-n4c(-c5cccnc5N)nc5cc(-n6cccn6)cnc54)ccc32)CC1 [Example 217, 1-(4-{[(1S)-5-[2-(2-aminopyridin-3-yl)-6-(pyrazol-1-yl)imidazo[4,5-b]pyridin-3-yl]-2,3-dihydro-1H-inden-1-yl]amino}piperidin-1-yl)prop-2-en-1-one]",321 nM,1870 nM,–,3470 nM
"C=CC(=O)N1CCC(N[C@H]2CCc3cc(-n4c(-c5cccnc5N)nc5ccc(-n6cccn6)nc54)ccc32)CC1CC#N (single isomer, unassigned) [Example 338, 2-((2*,4*)-1-acryloyl-4-(((S)-5-(2-(2-aminopyridin-3-yl)-5-(1H-pyrazol-1-yl)-3H-imidazo[4,5-b]pyridin-3-yl)-2,3-dihydro-1H-inden-1-yl)amino)piperidin-2-yl)acetonitrile]",12.3 nM,108 nM,–,–
"C=CC(=O)N1CC(F)C(N[C@H]2CCc3cc(-n4c(-c5cccnc5N)nc5ccc(-n6cccn6)nc54)ccc32)C(F)C1 (single isomer, unassigned) [Example 223, 1-((3*,5*)-4-(((S)-5-(2-(2-aminopyridin-3-yl)-5-(1H-pyrazol-1-yl)-3H-imidazo[4,5-b]pyridin-3-yl)-2,3-dihydro-1H-inden-1-yl)amino)-3,5-difluoropiperidin-1-yl)prop-2-en-1-one]",> 1000 nM,–,> 10000 nM,–
